Measurements taken from US8349792B2, “Combination comprising CNDAC (2′-cyano-2′-deoxy-N4-palmitoyl-1-beta-D-arabinofuranosyl-cytosine) and a cytotoxic agent” (priority 2006, dated 2013).

Experiments:
H358 cells = assay: H358 xenograft tumour growth; assay type: in vivo, mice (nu/nu); details: for mean tumour volume: day 22, sapacitabine 15 mg/kg oral, irinotecan 50 mg/kg i.p. weekly, SAHA 50 mg/kg oral
Method: Female mice (nu/nu) were obtained from Harlan. Animals were injected subcutaneously with ˜1×10^7 H358 cells/mouse at a single site on their flanks. Tumours were allowed to grow to ˜127 mm^3 before being pair-matched by tumour size into treatment groups (10 mice/group). One group was treated with sapacitabine (15 mg/kg) once daily by oral gavage for five consecutive days followed by a two day break; the treatment was then repeated for a total of three cycles. Irinotecan (50 mg/kg) was treated once weekly by intraperitoneal injection for three weeks. […] Mice were weighed at least twice a week to assess toxicity of the treatments and the tumours were measured with calipers at least twice a week to determine tumour growth. The tumour measurements were converted into volumes using the formula: tumour volume (mm^3)=width^2 (mm)×length (mm)×0.52. The percent tumour growth inhibition was determined with the formula: 1−(Change in treated tumour volume/change in control tumour volume)×100%. Statistical significance was determined using a two sided unpaired Student's T-test.

Hut78 cells [1] = assay: Western blotting analysis in Hut78 cells; assay type: cell-based; details: 1×IC50, western blot
Method: Protein lysates were generated from 10 cm plates that were seeded at approximately 5×10^5 cells/well, in medium containing 10% FCS. […] Cells were collected by centrifugation (5 min×2,000 g), washed once with ice-cold buffer A (50 mM HEPES, pH 7.0, 20 mM NaCl, 1 mM DTT, protease inhibitors, 10 mM Sodium pyrophosphate, 10 mM Sodium Fluoride and 1 mM Sodium Orthovanadate), and resuspended in 0.3 ml of the same buffer. Cells were lysed by sonication (2×3 s bursts with probe sonicator), and the protein concentration of each tube determined using the BCA assay. Lysates (20-30 μg protein loaded/well) were resolved on Bis-Tris gels containing 10 or 12% acrylamide and transferred to nitrocellulose for analysis by western blotting. Membranes were blocked for 1 h at room temperature in PBS containing 0.02% (v/v) Tween 20 and 5% (w/v) fat-free dried milk. Antibody incubations were carried out overnight at 2-8° C. in PBS containing 0.02% (v/v) Tween 20 (PBST) containing 3% (w/v) dried milk. Nitrocellulose membranes were probed with the following antibodies:
Membranes were then washed three times in PBST, and then incubated for 1 h with the appropriate horseradish peroxidase-conjugated secondary antibody (Perbio) at 1:5,000 dilution. Finally, the membranes were washed three times in PBST prior to development using an enhanced chemiluminescence kit (Amersham Corporation, Buckinghamshire, U.K.) or the Millipore Immobilon HRP substrate.
Cells were harvested and the resulting cell lysates analysed by western blotting with the indicated antibodies. Data are representative of two independent experiments (FIG. 5). […] Homologous recombination is one of the major repair pathways for double strand DNA breaks, and RAD51 plays a key role in homologous recombination.

Hut78 cells [2] = assay: Flow cytometry, Annexin V staining; assay type: cell-based; details: IC50, 24 h, 48 h or 72 h
Method: (§1) Hut78 cells were seeded in 10 cm plates at approximately 5×10^5 cells/plate and left to settle for 2 h. […] After treatment, cells were harvested and cell cycle analysis was carried our. Cells were pelleted by centrifugation, washed twice in PBS and then fixed overnight in 70% (v/v) ethanol at −20° C. Cells were stained with 50 μg/ml propidium iodide for 20 min and the DNA content analysed on the flow cytometer. Annexin V staining was performed as indicated in manufacturer's instructions, on live, non-fixed cells.
Cells were then harvested, stained with annexin V and analysed on the flow cytometer. Data are representative of two independent experiments. Annexin V labels live cells that are undergoing apoptosis or already dead. […] The synergy detected in the calcusyn analysis (Table 1) is therefore likely to be mainly due to inhibition of cell proliferation.

Hut78 cells [3] = assay: Flow cytometry, propidium iodide DNA content (sub-G1); assay type: cell-based; details: for sub-G1 cells, dose dependence: 0.5×-2×IC50, 72 h; for sub-G1 cells, time dependence: 1×IC50, 16, 24, 48 or 72 h
Method: as §1
After drug treatment, cells were then harvested, stained with propidium iodide and their DNA content analysed by flow cytometry.
After treatment, cells were then harvested, stained with propidium iodide and their DNA content analysed by flow cytometry.

p388 mouse leukaemia = p388 mouse leukaemia xenograft, survival; assay type: in vivo; details: P388 mouse model; CYC682 20 mg/kg PO QD×5×2, SAHA 75 mg/kg IP QD×12; compared to vehicle control
Description: The p388 mouse leukaemia xenograft assesses drug combinations by the survival times of the mice in the various treatment arms.

[4] = human, in vivo; cited from earlier work
colon cancer = details: model of colon cancer, cited from earlier work
Hut78 cells [5] = assay: 72 h IC50 by Alamar blue assay in Hut78; assay type: cell-based; details: read-out: 1×IC50 value in Hut78 cells
Method: Experiments were carried out in 96-well plates and the cell lines seeded at a density of 2500/well for H1299, 2500/well or 3000/well for H460, 5000/well for HL-60 cells, and 8,000 cells/well for Hut78, MV4-11 and PL-21 cells. […] Each compound was then tested in combination with CNDAC using three different treatment regimes: concomitant, CNDAC pre-treatment followed by HDAC inhibitor/topoisomerase inhibitor and CNDAC treatment after pre-treatment with HDAC inhibitor/topoisomerase inhibitor.

Compound | tumour growth inhibition (% TGI) (H358 cells; day 22) [%] | effect on tumour growth (in words) (H358 cells; day 22) | mean tumour volume (H358 cells) [mm^3] | Acetyl-histone H4 (Hut78 cells [1]) | apoptotic/dead cells (annexin V) (Hut78 cells [2]) | sub-G1 cells, dose dependence (Hut78 cells [3]) | sub-G1 cells, time dependence (Hut78 cells [3]) | survival (p388 mouse leukaemia) | tolerability, dose limiting toxicity [4] | anticancer activity (colon cancer) | increasing survival and preventing the spread of colon cancer metastases to the liver (colon cancer; versus gemcitabine or 5-FU) | H2A.X phosphorylation at serine 139 (Hut78 cells [1]) | Mcl-1 (Hut78 cells [1]) | IC50 (Hut78 cells [5]) [nM] | sub-G1 cells, share of the cell population (Hut78 cells [3]; 1×IC50, by 72 h) [%]
CCc1c2c(nc3ccc(OC(=O)N4CCC(N5CCCCC5)CC4)cc13)-c1cc3c(c(=O)n1C2)COC(=O)[C@]3(O)CC [irinotecan] | ~75 |  |  |  |  |  |  |  |  |  |  |  |  |  | 
O=C(CCCCCCC(=O)Nc1ccccc1)NO [SAHA, suberoylanilide hydramic acid, reference compound] |  | no effect on tumour growth | 517 | increase in Acetyl-histone H4 | negligible increase in dead/dying cells | little effect on the cell cycle, except at 2×IC50, where it induced a small increase in sub-G1 cells | small increase in sub-G1 cells | very little effect on survival |  |  |  |  |  |  | 
CCCCCCCCCCCCCCCC(=O)Nc1ccn([C@@H]2O[C@H](CO)[C@@H](O)[C@@H]2C#N)c(=O)n1 [sapacitabine, 2′-cyano-2′-deoxy-N^4-palmitoyl-1-β-D-arabinofuranosylcytosine] | ~75 |  | 229 |  |  |  |  | significant increase in the survival time | well tolerated in humans, with myelosuppression as the dose limiting toxicity | strong anticancer activity | superior to either gemcitabine or 5-FU |  |  |  | 
N#C[C@H]1[C@H](O)[C@@H](CO)O[C@H]1n1ccc(N)nc1=O [CNDAC, 1-(2-C-cyano-2-deoxy-β-D-arabino-pentafuranosyl)-cytosine] |  |  |  |  | time-dependent increase in apoptotic/dead cells | dose-dependent increase in sub-G1 cells | time-dependent increase in sub-G1 cells that became apparent by 48 h treatment |  |  |  |  | increase in H2A.X phosphorylation at serine 139 | decrease in Mcl-1 | 360 | ~30
